Where “and” joins values, the source holds several entries; their conditions need not be identical. Equal entries are not always repeated. Structures can show the parent of a compound that is named as a salt. Where two headings read alike, the source gives them in different places.
Key:
MDCK cells [1] = system: MDCK cells
[2] = system: A/California-like/2009 (H1N1); experiment: microbe, parasite or virus in culture; type: cell-based, influenza A virus
A/Hong Kong/X31 (H3N2) = experiment: microbe, parasite or virus in culture; type: cell-based, influenza A virus; conditions: read-out: EC50 values, A/Hong Kong/X31 (H3N2)
[3] = system: A/Swine/OTH-33-2/2009 (H1N1); type: cell-based, influenza A virus
[4] = system: A/Puerto Rico/8/34 (H1N1); experiment: microbe, parasite or virus in culture; type: cell-based, influenza A virus; conditions: for EC50: read-out: EC50 values, A/Puerto Rico/8/34 (H1N1)
[5] = system: viral acidic polymerase (PA) expression, PR8 virus; type: cell-based, influenza A virus
in vitro = conditions: dog
PR8 virus = type: cell-based, influenza A virus
[6] = XTT cytotoxicity assay in MDCK cells; conditions: dog
PR8 influenza virus = type: cell-based, influenza A virus
[7] = XTT cytotoxic assay in Calu-3 cells; type: cell-based; conditions: human
[8] = system: A/Puerto Rico/8/34 (H1N1); experiment: microbe, parasite or virus in culture; type: cell-based; conditions: Influenza A virus, H1N1 / PR8, Calu-3, 48 h, read-out: EC50 values
MDCK cells [9] = experiment: XTT cytotoxicity assay in MDCK cells; conditions: MDCK cells; for CC50: XTT cell viability, 2 days
[10] = Influenza A virus, H1N1, MDCK, 48 h, read-out: EC50 values, A/California-like/2009 (H1N1)
[11] = Influenza A virus, H3N2, MDCK, 48 h
[12] = Influenza A virus, H1N1, MDCK, 48 h
[13] = read-out: EC50 values, A/California-like/2009 (H1N1)

With CCN(CC)CCCC(C)Nc1c2ccc(Cl)cc2nc2ccc(OC)cc12 (stereo not shown) [Quinacrine, quinacrine dihydrochloride] as the compound, how does the toxicity (MDCK cells [1]) read?
The toxicity was “no toxicity”.

And the cell death (MDCK cells [1]; dog)?
Its cell death is 10%.

And the EC50 [2, 10]?
The EC50 was 1.88 ± 0.87 µM.

And the EC50 (A/Hong Kong/X31 (H3N2); [11])?
The EC50 was 5.97 ± 0.91 µM.

What about the inhibition of replication [3] of the same compound?
Its inhibition of replication is “more than 60%”.

What about the EC50 [4, 12] of the same compound?
Its EC50 is 2.96 ± 0.87 µM.

What about the “decrease of PA expression” value [5] of the same compound?
The value was “more than 90%”.

What about the CC50 (in vitro) of the same compound?
Its CC50 is 14.6 ± 8.51 µM.

For CCN(CC)CCCC(C)Nc1ccnc2cc(Cl)ccc12 (stereo not shown) [Chloroquine, chloroquine diphosphate salt], which EC50 [2, 10] is on record?
Its EC50 is 4.01 ± 0.8 µM.

And the “effect on viral replication” value (PR8 virus)?
Its value is “abrogate viral replication”.

What about the EC50 (A/Hong Kong/X31 (H3N2); [11]) of the same compound?
The EC50 was 4.31 ± 0.96 µM.

What about the inhibition of replication [3] of the same compound?
The inhibition of replication was “more than 60%”.

What about the EC50 [4, 12] of the same compound?
Its EC50 is 0.61 ± 0.91 µM.

What does the source list for C=C[C@H]1C[N@@]2CC[C@H]1C[C@@H]2[C@@H](O)c1ccnc2ccc(OC)cc12 [Quinidine, quinidine anhydrous]?
EC50 [2, 10]: 5.11 ± 0.76 µM; EC50 (A/Hong Kong/X31 (H3N2); [11]): 19.8 ± 8.83 µM; dose range at which IAV replication is inhibited [4]: ≥ 16.2 µM; EC50 [4, 12]: 16.2 ± 8.9 µM; decrease of PA expression [5]: more than 90%; CC50 (in vitro): 167 ± 94.2 µM

For CCC(CC)O[C@@H]1C=C(C(=O)O)C[C@H](N)[C@H]1NC(C)=O [Oseltamivir carboxylate], which CC50 (MDCK cells [1]) is on record?
Its CC50 is greater than 1000 µM.

What about the EC50 [2, 13] of the same compound?
The EC50 was 0.103 ± 0.0321 µM.

What about the EC50 (PR8 virus) of the same compound?
The EC50 was 0.313 µM.

What about the EC50 (A/Hong Kong/X31 (H3N2)) of the same compound?
The EC50 was 0.00074 ± 8e-05 µM.

What about the “reduction of PR8 replication” value [4] of the same compound?
Its value is “approximately 30%”.

What about the EC50 [4] of the same compound?
The EC50 was 0.05 µM and 0.0499 µM.

With COc1cc(NC(C)CCCN)c2ncccc2c1 (stereo not shown) [Primaquine, primaquine diphosphate] as the compound, how does the EC50 [2, 10] read?
Its EC50 is 28.6 ± 9.45 µM.

And the EC50 (A/Hong Kong/X31 (H3N2); [11])?
Its EC50 is 29.5 ± 9.42 µM.

What about the inhibition of replication [3] of the same compound?
The inhibition of replication was “less than 20%”.

What about the EC50 [4, 12] of the same compound?
The EC50 was 8.58 ± 0.89 µM.

What about the “decrease of PA expression” value [5] of the same compound?
The value was 62%.

For CN(C)c1nc(N)c(C(=O)NC(=N)N)nc1Cl [5-(N,N-Dimethyl)amiloride hydrochloride, 5-(N,N-Dimethyl) amiloride hydrochloride], which EC50 [2, 10] is on record?
The EC50 was 63.5 ± 5.77 µM.

And the “inhibition of viral replication” value (PR8 virus)?
The value was 80%.

What about the EC50 (A/Hong Kong/X31 (H3N2); [11]) of the same compound?
Its EC50 is 20.4 ± 8.62 µM.

And the EC50 [4, 12]?
Its EC50 is 31.1 ± 7.72 µM.

And the “effect on PA gene expression” value [5]?
Its value is “almost completely abolished”.

And the CC50 at 2 days (in vitro)?
The CC50 at 2 days was 175 ± 10.2 µM.

With CNc1ccc2oc(C[C@H]3O[C@@]4(CC[C@H]3C)O[C@H]([C@H](C)C(=O)c3ccc[nH]3)[C@H](C)C[C@H]4C)nc2c1C(=O)O [A23187 (calcimycin), calcimycin (A23187)] as the compound, how does the CC50 at 2 days [6] read?
Its CC50 at 2 days is 0.413 ± 0.21 µM.

What about the EC50 [2, 10] of the same compound?
The EC50 was 0.22 ± 0.01 µM.

And the “effect on viral replication” value (PR8 virus)?
Its value is “completely inhibit viral replication”.

And the EC50 (A/Hong Kong/X31 (H3N2); [11])?
The EC50 was 0.08 ± 0.01 µM.

What about the EC50 [4, 12] of the same compound?
Its EC50 is 0.08 ± 0.01 µM.

And the “decrease of PA expression” value [5]?
Its value is 42%.

What does the source list for CCN(CC)Cc1cc(Nc2ccnc3cc(Cl)ccc23)ccc1O [Amodiaquine, amodiaquin dihydrochloride dihydrate]?
effect on viral replication in growth kinetics assays (PR8 influenza virus): inhibited viral replication; EC50 [2, 10]: 1.48 ± 0.92 µM; CC50 [7]: 53.6 ± 8.8 µM; effect on viral replication (PR8 virus): abrogate viral replication; EC50 (A/Hong Kong/X31 (H3N2); [11]): 2.63 ± 0.9 µM; inhibition of replication [3]: more than 60%; EC50 [8]: 1.25 to 2.5 µM; reduction of PR8 replication [4]: ~26%; EC50 [4, 12]: 2.76 ± 0.95 µM; decrease of PA expression [5]: 82%; CC50 (in vitro): 26.2 ± 8.43 µM

Which CC50 (MDCK cells [9]; footnote c: [ ] in nM) does the source give for CO/C1=C\C(C)=C\[C@@H](C)[C@@H](O)[C@@H](C)C/C(C)=C/C=C/[C@H](OC)[C@@H]([C@@H](C)[C@@H](O)[C@H](C)[C@@]2(O)C[C@@H](O)[C@H](C)[C@@H](C(C)C)O2)OC1=O [Bafilomycin A, bafilomycin A] here?
Its CC50 is 16.8 ± 9.02 nM.

And the EC50 ([2]; read-out: EC50 values, A/California-like/2009 (H1N1), result as symbol)?
Its EC50 is less than 0.004 µM.

And the EC50 [4]?
Its EC50 is 0.004 µM.

What about the “decrease of PA expression” value [5] of the same compound?
Its value is “more than 90%”.

For COc1ccc(CCN(C)CCCC(C#N)(c2ccc(OC)c(OC)c2)C(C)C)cc1OC (stereo not shown) [Verapamil, verapamil hydrochoride], which EC50 (A/Hong Kong/X31 (H3N2); [11]) is on record?
The EC50 was 19.6 ± 8.75 µM.

What about the EC50 [8] of the same compound?
Its EC50 is 1.25 to 2.5 µM.

What does the source list for OC(c1cc(C(F)(F)F)nc2c(C(F)(F)F)cccc12)C1CCCCN1 (stereo not shown) [Mefloquine, mefloquine hydrochloride]?
EC50 ([2]; Influenza A virus, H1N1, MDCK, read-out: EC50 values, A/California-like/2009 (H1N1), result as symbol): > 22.9 µM; EC50 (A/Hong Kong/X31 (H3N2); [11]): 6.66 ± 0.75 µM; EC50 [4, 12]: 5.13 ± 0.87 µM; decrease of PA expression [5]: 82%; CC50 (in vitro): 22.9 ± 1.3 µM

What does the source list for COc1cc(CNC(=O)CCCC/C=C/C(C)C)ccc1O [Capsaicin, capsaicin]?
toxicity (MDCK cells [9]; at 100 µM): no significant toxicity; cell death (MDCK cells [9]; at 200 µM): 50%; CC50 at 2 days [6]: 157 ± 9.63 µM; EC50 [2, 10]: 44.7 ± 8.15 µM; EC50 (A/Hong Kong/X31 (H3N2); [11]): 55.2 ± 7.2 µM; EC50 [4, 12]: 58.8 ± 8.32 µM; decrease of PA expression [5]: approximately 48%

Which EC50 [2, 10] does the source give for C=C[C@H]1C[N@@]2CC[C@H]1C[C@H]2[C@H](O)c1ccnc2ccc(OC)cc12 [Quinine, Quinine sulfate] here?
Its EC50 is 12.2 ± 8.49 µM.

What about the “concentration needed to abrogate viral replication” value (PR8 virus) of the same compound?
The value was 60 µM.

What about the “effect on viral replication” value (PR8 virus) of the same compound?
The value was “abrogate viral replication”.

And the EC50 (A/Hong Kong/X31 (H3N2); [11])?
The EC50 was 17.1 ± 8.7 µM.

And the “concentration needed to abrogate viral replication” value [4]?
Its value is 50 µM.

What about the EC50 [4, 12] of the same compound?
The EC50 was 9.1 ± 0.89 µM.

What about the “decrease of PA expression” value [5] of the same compound?
Its value is “more than 90%”.

What about the CC50 (in vitro) of the same compound?
The CC50 was 409 ± 82.2 µM.

Which CC50 (MDCK cells [9]) does the source give for CCN(CC)CCCCCCCCOC(=O)c1cc(OC)c(OC)c(OC)c1.Cl [TMB-8, TMB-8 hydrochloride] here?
The CC50 was 52300 ± 8380 nM.

And the cell death (MDCK cells [1])?
The cell death was 25%.

What about the toxicity (MDCK cells [1]) of the same compound?
Its toxicity is “no significant toxicity”.

What about the EC50 [2, 13] of the same compound?
The EC50 was 12.7 ± 8.65 µM.

What about the “effect on viral replication” value (PR8 virus) of the same compound?
Its value is “completely inhibit viral replication”.

What about the EC50 (A/Hong Kong/X31 (H3N2)) of the same compound?
The EC50 was 21.7 ± 9.31 µM.

What about the “inhibition of PR8 replication” value ([4]; 10 µM) of the same compound?
The value was 90%.

And the EC50 [4]?
The EC50 was 2.5 ± 0.91 µM.

And the “effect on PA gene expression” value [5]?
Its value is “almost completely abolished”.
